From ChEMBL document CHEMBL1201862, “PubChem BioAssay data set” (2004)
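Where inhibition never reached the appropriate level, the endpoint shown equals the highest concentration tested. Otherwise, values were interpolated linearly from a five-concentration, 48-hour dose response in 96-well plates. Here, GI50 denotes the concentration required for 50% inhibition of growth.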 The source made the active and inactive calls. Cut-off read from the data, not from the text of the source: active = GI50 up to about 1.1 µM and inactive = higher.

Experiments:
Assay in all cases: NCI anticancer screen, dose series, 48 h
SK-MEL-28 = tested on: SK-MEL-28
SK-OV-3 = tested on: SK-OV-3
CCRF-CEM = tested on: CCRF-CEM
SNB-75 = tested on: SNB-75
U-251 = tested on: U-251
A498 = tested on: A498
SF-539 = tested on: SF-539
A549 = tested on: A549
MOLT-4 = tested on: MOLT-4
LXFL 529 = tested on: LXFL 529
Malme-3M = tested on: Malme-3M
SR = tested on: SR
KM12 = tested on: KM12
UACC-62 = tested on: UACC-62
786-0 = tested on: 786-0
SK-MEL-5 = tested on: SK-MEL-5
SF-295 = tested on: SF-295
HT-29 = tested on: HT-29

Structure (SMILES) | GI50 (SK-MEL-28) | GI50 (SK-OV-3) | GI50 (CCRF-CEM) | GI50 (SNB-75) | GI50 (U-251) | GI50 (A498) | GI50 (SF-539) | GI50 (A549) | GI50 (MOLT-4) | GI50 (LXFL 529) | GI50 (Malme-3M) | GI50 (SR) | GI50 (KM12) | GI50 (UACC-62) | GI50 (786-0) | GI50 (SK-MEL-5) | GI50 (SF-295) | GI50 (HT-29)
N#C/C(c1nc2ccccc2[nH]1)=c1\s/c(=C/c2ccc(Cl)cc2)c(=O)n1-c1ccccc1 | > 100 µM (inactive) | > 100 µM (inactive) | > 100 µM (inactive) | 37.3 µM (inactive) | > 100 µM (inactive) | > 100 µM (inactive) | > 100 µM (inactive) | > 100 µM (inactive) | > 100 µM (inactive) | > 100 µM (inactive) | > 100 µM (inactive) | > 100 µM (inactive) | > 100 µM (inactive) | > 100 µM (inactive) | > 100 µM (inactive) | > 100 µM (inactive) | – | –
CCC(/C(=N/NC(=O)C[N+](C)(C)C)c1ccccc1)C1OC(=O)c2ccccc21 (centres undefined) | > 100 µM (inactive) | > 100 µM (inactive) | > 100 µM (inactive) | > 100 µM (inactive) | > 100 µM (inactive) | – | > 100 µM (inactive) | > 100 µM (inactive) | > 100 µM (inactive) | > 100 µM (inactive) | > 100 µM (inactive) | > 100 µM (inactive) | > 100 µM (inactive) | > 100 µM (inactive) | > 100 µM (inactive) | > 100 µM (inactive) | > 100 µM (inactive) | > 100 µM (inactive)
Cc1nn2c3c(nnc2c1C#N)C(=O)NN=C(N)S3 | > 100 µM (inactive) | > 100 µM (inactive) | > 100 µM (inactive) | – | > 100 µM (inactive) | – | > 100 µM (inactive) | > 100 µM (inactive) | > 100 µM (inactive) | > 100 µM (inactive) | > 100 µM (inactive) | > 100 µM (inactive) | > 100 µM (inactive) | > 100 µM (inactive) | > 100 µM (inactive) | > 100 µM (inactive) | > 100 µM (inactive) | > 100 µM (inactive)
C1=C(c2ccccc2)CN(c2ccccc2)OC1 | 79.8 µM (inactive) | > 100 µM (inactive) | > 100 µM (inactive) | 66.4 µM (inactive) | > 100 µM (inactive) | – | > 100 µM (inactive) | 85.9 µM (inactive) | 74.5 µM (inactive) | 64 µM (inactive) | > 100 µM (inactive) | 55.3 µM (inactive) | > 100 µM (inactive) | 67.3 µM (inactive) | > 100 µM (inactive) | – | – | 44.4 µM (inactive)
CC1CC2C(=O)N(c3ccccc3)C(=O)C2c2c1c1ccccc1n2Cc1ccccc1 (centres undefined) | – | > 100 µM (inactive) | > 100 µM (inactive) | – | – | – | > 100 µM (inactive) | 32.1 µM (inactive) | 58.5 µM (inactive) | > 100 µM (inactive) | > 100 µM (inactive) | 27.2 µM (inactive) | 7.52 µM (inactive) | > 100 µM (inactive) | > 100 µM (inactive) | > 100 µM (inactive) | > 100 µM (inactive) | > 100 µM (inactive)
FC(F)(F)c1nc(-c2ccccc2Cl)[nH]c1C(F)(F)F | 1.21 µM (inactive) | 0.841 µM (active) | 0.504 µM (active) | 1.07 µM (active) | 0.318 µM (active) | – | 0.893 µM (active) | 0.7 µM (active) | 0.991 µM (active) | 0.935 µM (active) | 0.861 µM (active) | 0.456 µM (active) | 0.975 µM (active) | 0.766 µM (active) | 1.08 µM (active) | 0.348 µM (active) | 0.681 µM (active) | 0.94 µM (active)
CCOC(=O)/C(Br)=C1\OC(=O)c2ccccc2-c2ccccc21 | 61.4 µM (inactive) | 34 µM (inactive) | 23.3 µM (inactive) | 26.4 µM (inactive) | 38.5 µM (inactive) | – | 25.1 µM (inactive) | 40.3 µM (inactive) | 25.9 µM (inactive) | 29.4 µM (inactive) | 47.2 µM (inactive) | 22 µM (inactive) | 34.7 µM (inactive) | 44.4 µM (inactive) | 52.8 µM (inactive) | 37.1 µM (inactive) | 36.5 µM (inactive) | 33.2 µM (inactive)
Cc1nc2ccccc2c(=O)[nH]1 | > 100 µM (inactive) | > 100 µM (inactive) | > 100 µM (inactive) | 37.1 µM (inactive) | > 100 µM (inactive) | > 100 µM (inactive) | > 100 µM (inactive) | > 100 µM (inactive) | > 100 µM (inactive) | > 100 µM (inactive) | > 100 µM (inactive) | – | > 100 µM (inactive) | > 100 µM (inactive) | > 100 µM (inactive) | > 100 µM (inactive) | > 100 µM (inactive) | > 100 µM (inactive)
